Key:
[1] = tested on: eRNAPII (CTD-S2P)-NSUN3 interaction; settings: Cheng 2018; cited from earlier work
[2] = tested on: eRNAPII (CTD-S2P)-NSUN1 interaction; settings: Cheng 2018; cited from earlier work
[3] = tested on: eRNAPII (CTD-S2P)-CTD-S5P interaction; settings: Cheng 2018; cited from earlier work
[4] = tested on: eRNAPII (CTD-S2P)-DNMT2 interaction; settings: Cheng 2018; cited from earlier work
SCAR cells = settings: low concentrations of 5-AZA, NSUN1 siRNA; Cheng 2018; cited from earlier work
BRD4-NSUN1 interaction = settings: azacitidine-resistant M2AR cells; Cheng 2018; cited from earlier work
[5] = tested on: BRD4-eRNAPII (CTD-S2P) interaction; settings: azacitidine-resistant M2AR cells; Cheng 2018; cited from earlier work
[6] = target: NSUN2-mitochondrial RNA polymerase (POLRMT) interaction (Homo sapiens, UniProt Q08J23); assay: PL-RCA-FCM, NSUN2-POLRMT interaction; format: cell-based
NSUN2-mitochondrial RNA polymerase (POLRMT) interaction, sequence (Q08J23 whole entry): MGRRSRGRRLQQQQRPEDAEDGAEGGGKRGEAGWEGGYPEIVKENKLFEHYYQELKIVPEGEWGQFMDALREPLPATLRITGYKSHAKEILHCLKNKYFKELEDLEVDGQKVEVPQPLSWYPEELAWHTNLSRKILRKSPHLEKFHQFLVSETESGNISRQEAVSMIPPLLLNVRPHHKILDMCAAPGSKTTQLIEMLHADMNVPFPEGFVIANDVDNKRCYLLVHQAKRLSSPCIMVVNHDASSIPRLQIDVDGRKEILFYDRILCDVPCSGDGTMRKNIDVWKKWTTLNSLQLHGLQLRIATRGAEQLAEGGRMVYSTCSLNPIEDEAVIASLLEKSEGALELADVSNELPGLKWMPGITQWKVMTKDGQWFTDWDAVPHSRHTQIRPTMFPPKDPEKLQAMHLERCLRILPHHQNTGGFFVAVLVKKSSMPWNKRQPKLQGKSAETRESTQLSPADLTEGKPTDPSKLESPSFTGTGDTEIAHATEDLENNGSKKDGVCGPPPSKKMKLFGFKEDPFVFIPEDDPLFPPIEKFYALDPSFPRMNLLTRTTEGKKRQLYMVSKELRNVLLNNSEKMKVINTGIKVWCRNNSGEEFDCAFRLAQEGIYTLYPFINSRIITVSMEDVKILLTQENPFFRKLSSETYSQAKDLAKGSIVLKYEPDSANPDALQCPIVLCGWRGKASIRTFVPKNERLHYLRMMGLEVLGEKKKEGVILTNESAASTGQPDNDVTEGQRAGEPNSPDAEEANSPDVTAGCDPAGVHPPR
Text: (§1) FIG. 23 provides PL-RCA-FCM results and an associated schematic showing that NSUN2-11 can disrupt the interactions between NSUN2 and mitochondrial RNA polymerase (POLRMT) as well as mitochondrial translation initiation factor 3 (MTIF3). RNA:m5C/NSUN1/2-mediated transcription and translation complexes (RNATTC) mediate multidrug resistance through regulating multi-bioprocesses and multi-organelles' functions in cancer cells.
(§2) The PL-RCA-CM/imaging technique utilized in the inventors previous work (Cheng, J. X. et al., Nature Communications 2018) was suitable to visualize and semi-quantify the NSUN1/2-mediated ACS in cells. However, the previous technique had the disadvantage of having a low sensitivity and low throughput. To overcome this bottleneck, as described herein, the inventors developed NSUN1/2-targeting fluorescence quenching and release (FQR) plate assay (FIG. 6A) and PL-RCA flow cytometry (PL-RCA-FCM) technology (FIG. 6B) for screening of NSUN1/2-targeting drug libraries and quantitatively measuring NSUN1/2-mediated ACS with and without drugs in a lineage-specific and high-throughput manner. The new PL-RCA-FCM detected very strong PL-RCA signals (>2 logs) of the NSUN2-mediated interactions with m5C, RNAPII CTD2-S2P and BRD4, particularly in the venetoclax-resistant leukemia cells (SC) (FIG. 6C), in comparison to the venetoclax-sensitive K1 cells (FIG. 6D).

NSUN1-c-MYC interaction = NSUN1-c-MYC interaction (Homo sapiens, UniProt P46087); assay: PL-RCA-FCM, NSUN1-c-MYC interaction; format: cell-based
NSUN1-c-MYC interaction, sequence (P46087 whole entry): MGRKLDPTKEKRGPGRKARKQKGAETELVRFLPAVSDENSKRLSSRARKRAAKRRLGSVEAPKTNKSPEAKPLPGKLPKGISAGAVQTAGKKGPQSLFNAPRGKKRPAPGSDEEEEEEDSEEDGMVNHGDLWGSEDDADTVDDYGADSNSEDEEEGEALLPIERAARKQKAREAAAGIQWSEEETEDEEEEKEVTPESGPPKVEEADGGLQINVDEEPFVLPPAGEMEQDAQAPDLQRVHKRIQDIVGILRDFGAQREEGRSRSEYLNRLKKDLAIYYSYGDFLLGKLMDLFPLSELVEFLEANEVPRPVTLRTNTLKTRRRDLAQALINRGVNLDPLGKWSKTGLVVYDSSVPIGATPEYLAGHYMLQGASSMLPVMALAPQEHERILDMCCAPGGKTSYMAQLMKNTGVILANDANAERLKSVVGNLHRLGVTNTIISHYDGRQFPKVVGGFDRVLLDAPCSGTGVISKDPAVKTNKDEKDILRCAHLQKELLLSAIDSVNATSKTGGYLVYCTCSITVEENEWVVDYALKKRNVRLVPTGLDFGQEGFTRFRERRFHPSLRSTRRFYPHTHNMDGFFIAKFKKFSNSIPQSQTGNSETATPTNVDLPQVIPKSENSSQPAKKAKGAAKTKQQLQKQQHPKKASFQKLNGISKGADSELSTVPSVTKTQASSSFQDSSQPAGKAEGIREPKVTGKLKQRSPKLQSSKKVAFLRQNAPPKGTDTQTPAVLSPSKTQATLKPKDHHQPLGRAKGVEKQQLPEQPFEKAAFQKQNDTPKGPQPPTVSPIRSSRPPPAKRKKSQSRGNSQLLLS
Text: (§3) FIGS. 5A-5G display a pipeline of computational design and functional screening of small-molecule compound libraries as well as exemplary characterization and validation of identified positive hit compounds and their targets. FIGS. 5A-5D display an exemplary experimental procedure, beginning with characterization of NSUN1 and/or NSUN2 putative binding modules for interaction with ACS components (FIGS. 5A-5B), a graphic displaying the design of a small molecule library and testing of the putative small molecule NSUN1/2-ACS inhibitors in cell lines (FIG. 5C), characterization of the NSUN1/2-ACS inhibitors interactions with the ACS machinery (FIG. 5D).
(§4) Black=negative control, blue=positive control, no drug=red.
(§5) The PL-RCA-CM/imaging technique utilized in the inventors previous work (Cheng, J. X. et al., Nature Communications 2018) was suitable to visualize and semi-quantify the NSUN1/2-mediated ACS in cells. […] To overcome this bottleneck, as described herein, the inventors developed NSUN1/2-targeting fluorescence quenching and release (FQR) plate assay (FIG. 6A) and PL-RCA flow cytometry (PL-RCA-FCM) technology (FIG. 6B) for screening of NSUN1/2-targeting drug libraries and quantitatively measuring NSUN1/2-mediated ACS with and without drugs in a lineage-specific and high-throughput manner. […]

[7] = target: T1, NSUN2-RNA polymerase II (RNAPII) interaction (Homo sapiens, UniProt Q08J23); assay: PL-RCA-FCM, NSUN2-RNAPII interaction; format: cell-based
T1 construct: RNAPII CTD2-S2P
T1 sequence (Q08J23 whole entry): as the sequence (Q08J23 whole entry) above
Text: as §4, §2

NSUN2-c-MYC interaction = NSUN2-c-MYC interaction (Homo sapiens, UniProt Q08J23); assay: PL-RCA-FCM, NSUN2-c-MYC interaction; format: cell-based
NSUN2-c-MYC interaction, sequence (Q08J23 whole entry): as above
Text: as §4, §2

[8] = target: NSUN2-mitochondrial translation initiation factor 3 (MTIF3) interaction (Homo sapiens, UniProt Q08J23); assay: PL-RCA-FCM, NSUN2-MTIF3 interaction; format: cell-based
NSUN2-mitochondrial translation initiation factor 3 (MTIF3) interaction, sequence (Q08J23 whole entry): as above
Text: as §1, §2

[9] = target: T2, NSUN1-eRNAPII interaction (Homo sapiens, UniProt P46087); assay: PL-RCA-FCM, NSUN1-eRNAPII interaction; format: cell-based
T2 construct: RNAPII
T2 sequence (P46087 whole entry): as the sequence (P46087 whole entry) above
Text: as §3, §4, §5

[10] = tested on: leukemia and lung cancer cell lines; assay: Functional (MTT) screening of NSUN1/2-targeting libraries in leukemia and lung cancer cell lines; format: cell-based, human; settings: leukemia and lung cancer cell lines
Protocol: (§6) FIGS. 11A-11D display scatter plot representations of screening results for AI-designed NSUN1-targeting compound libraries in a venetcoclax-resistant human myeloid leukemia cell line (SC), lung cancer cell line (H82), and venetoclax resistant human […], and a schematic representation of categorization of the results. A human myeloid leukemia cell Line (SC), a lung cancer cell line (H82 or K562) were both incubated at drug concentration 10 μM/μL overnight. MTT assays were performed after 24 hours, and changes were calculated as the percentage of mean absorbance (n=3) versus mean absorbance of drug-free control (n=3). Negative outliers indicated in red ovals. FIG. 11A depicts the results of an NSUN1-targeting drug library, 74 drugs, comparing growth/inhibition in H-82 (Y axis) and SC (X axis) cell lines. FIG. 11B depicts the results of an NSUN2-targeting drug library, 102 drugs, comparing growth/inhibition in H-82 (Y axis) and SC (X axis) cell lines. FIG. 11C depicts the results of an NSUN1-targeting drug library, 74 drugs, comparing growth/inhibition in K562 (Y axis) and SC (X axis) cell lines. FIG. 11D is a schematic representation showing categorization of the results from screens performed as described in FIG. 11, and validation experiments as described in FIG. 12.
(§7) FIGS. 12A-12J display bar graphs displaying the results of validation experiments for small molecule inhibitors of NSUN1/2-ACS interactions as identified herein. Drug validation of select SC, H82, and/or K562 inhibiting compounds in mouse acute myeloid leukemia cell Line (C1498), SC cells, H82 cells, and/or K562 cells. NSUN1-17 and/or venetoclax acted as controls. Inhibition of cell vitality was identified as dose-dependent for certain small molecules, not merely cytotoxic. In brief, stock with concentration 0.4×10^6 test (e.g., SC, H82, K562, or C1498, as labelled) cells/mL, and 10 μM/μL drug was serially diluted into drug-free cell stock to reach concentrations of 1 μM/μL and […] and split into 100 μL volumes in a 96-well plate. MTT assays performed after 24 hour incubation. Percentages calculated as a difference in mean absorbance of each drug triplicate and mean absorbance in drug-free cell triplicate. Red bars represent standard errors. The concentration of drug represented by each column is from left to right as written in the figure keys. FIGS. 12A-12E provide results from independent repeats for different groupings of small molecules tested against C1498 cells. FIGS. 12F-12G provide results from independent repeats for different groupings of small molecules tested against H82 cells. FIGS. […] provide results from independent repeats for different groupings of small molecules tested against SC cells. FIG. 12J provide results from an assay against K562 cells.
The inventors then designed a protocol for functional screening of NSUN1/2-targeting supercomputing/AI-derived compound libraries as schematically presented in FIGS. 5A-5G. Briefly, the library compounds were obtained from various chemical companies/vendors and dissolved in DMSO, and then applied to 96-well plates that contained leukemia and/or other cancer cells that were resistant to venetoclax. Both the routine colorimetric assay (MTT assay) and the newly developed NSUN1/2-targeting fluorescence quenching and release (FQR) assay were performed to select bioactive compounds for further quantitative study to confirm that they targetNSUN1/2 and their associated ACS. As described below, the compound libraries screened through cancer cell proliferation and/or NSUN1/2 localization to the ACS successfully identified numerous promising compounds that can inhibit the leukemia cell growth and appear to target the NSUN1-mediated ACS (see Table 2). This success has proven the feasibility and efficacy of the described supercomputing/AI design and functional screening of the NSUN1/2-targeting drug libraries. In some aspects, screening is conducted using drug-resistant cell lines. […]

CCRF-CEM cells = assay: Venetoclax sensitivity of CCRF-CEM cells; format: cell-based
C1498 cells = assay: MTT growth inhibition in myeloid leukemia cell line C1498; format: cell-based, mouse; settings: mouse AML cell line
Text: (§8) FIGS. 8A-8B display a schematic of an 5-ethynyl uridine click chemistry (EC)-coupled flow cytometry (EC-FCM) assay (FIG. 8A), while FIG. 8B depicts the results of an EC-FCM assay showing distinct drug-specific signatures/patterns of nascent RNA synthesis inhibition in the venetoclax sensitive leukemia cell line (K1). The MTT assay measures cell viability and proliferation as well as cytotoxicity of compounds by assessing cellular metabolic activity. The associated measurement can be described as cell viability, cell killing, and/or growth inhibition.
as §7
The inventors then designed a protocol for functional screening of NSUN1/2-targeting supercomputing/AI-derived compound libraries as schematically presented in FIGS. 5A-5G. Briefly, the library compounds were obtained from various chemical companies/vendors and dissolved in DMSO, and then applied to 96-well plates that contained leukemia and/or other cancer cells that were resistant to venetoclax. Both the routine colorimetric assay (MTT assay) and the newly developed NSUN1/2-targeting fluorescence quenching and release (FQR) assay were performed to select bioactive compounds for further quantitative study to confirm that they targetNSUN1/2 and their associated ACS. As described below, the compound libraries screened through cancer cell proliferation and/or NSUN1/2 localization to the ACS successfully identified numerous promising compounds that can inhibit the leukemia cell growth and appear to target the NSUN1-mediated ACS (see Table 2). This success has proven the feasibility and efficacy of the described supercomputing/AI design and functional screening of the NSUN1/2-targeting drug libraries. In some aspects, screening is conducted using drug-resistant cell lines. In some aspects, screening is conducted using drug-sensitive cell lines. In some aspects, screening is conducted in leukemia cell lines. In some aspects, screening is conducted in other cancer cell lines besides leukemia (e.g., lung cancer cell lines). In some aspects, NSUN1/2-ACS inhibitors identified are verified in additional cell lines and/or animal models (see e.g., Tables 4-6).

H82 cells = assay: MTT growth inhibition in venetoclax-resistant lung cancer cell line H82; format: cell-based, human; settings: human lung cancer cell line NCI-H82
Text: as §8, §6
FIGS. 12A-12J display bar graphs displaying the results of validation experiments for small molecule inhibitors of NSUN1/2-ACS interactions as identified herein. Drug validation of select SC, H82, and/or K562 inhibiting compounds in mouse acute myeloid leukemia cell Line (C1498), SC cells, H82 cells, and/or K562 cells. NSUN1-17 and/or venetoclax acted as controls. Inhibition of cell vitality was identified as dose-dependent for certain small molecules, not merely cytotoxic. In brief, stock with concentration 0.4×10^6 test (e.g., SC, H82, K562, or C1498, as labelled) cells/mL, and 10 μM/μL drug was serially diluted into drug-free cell stock to reach concentrations of 1 μM/μL and […] and split into 100 μL volumes in a 96-well plate. MTT assays performed after 24 hour incubation. Percentages calculated as a difference in mean absorbance of each drug triplicate and mean absorbance in drug-free cell triplicate. […]

Kasumi-1 (K1) cells = assay: Venetoclax sensitivity of Kasumi-1 cells; format: cell-based
K1VR cells = assay: Venetoclax sensitivity of K1VR cells after NSUN1/NSUN2 knockdown; format: cell-based; settings: knockdown of either NSUN1 or NSUN2
MDS/AML = settings: cited from earlier work
SC cells = assay: MTT growth inhibition in venetoclax-resistant monocytic leukemia cell line SC; format: cell-based, human; settings: monocytic leukemia line SC
Text: as §8, §6, §7
The inventors then designed a protocol for functional screening of NSUN1/2-targeting supercomputing/AI-derived compound libraries as schematically presented in FIGS. 5A-5G. Briefly, the library compounds were obtained from various chemical companies/vendors and dissolved in DMSO, and then applied to 96-well plates that contained leukemia and/or other cancer cells that were resistant to venetoclax. […]

**Q.** What does the source list for `Nc1ncn([C@@H]2O[C@H](CO)[C@@H](O)[C@H]2O)c(=O)n1` [5-AZA, 5-azacytidine]?
**A.** Sensitivity of eRNAPII (CTD-S2P)-NSUN3 interaction [1]: highly sensitive; Sensitivity of eRNAPII (CTD-S2P)-NSUN1 interaction [2]: resistant; Sensitivity of eRNAPII (CTD-S2P)-CTD-S5P interaction [3]: resistant; Sensitivity of eRNAPII (CTD-S2P)-DNMT2 interaction [4]: highly sensitive; Response of 5-AZA-resistant SCAR cells after NSUN1 knockdown (SCAR cells): re-sensitized

**Q.** Which “Sensitivity of BRD4-NSUN1 interaction” value (BRD4-NSUN1 interaction) does the source give for `Cc1sc2c(c1C)C(c1ccc(Cl)cc1)=N[C@@H](CC(=O)OC(C)(C)C)c1nnc(C)n1-2` [JQ1] here?
**A.** insensitive

**Q.** And the “Sensitivity of BRD4-eRNAPII (CTD-S2P) interaction” value [5]?
**A.** insensitive

**Q.** What does the source list for `COc1ccc2c(c1)CCc1c(C(=O)NCCc3nc4cc(C)ccc4[nH]3)n[nH]c1-2` [NSUN2-11]?
**A.** Effect on NSUN2-POLRMT interaction [6]: can disrupt; Effect on NSUN1 interaction with c-MYC (NSUN1-c-MYC interaction): can disrupt; Effect on NSUN2-mediated interaction with RNA polymerase II [7]: can disrupt; Effect on NSUN2-mediated interaction with c-MYC (NSUN2-c-MYC interaction): can disrupt; Effect on NSUN2-MTIF3 interaction [8]: can disrupt; Effect on NSUN1 interaction with eRNAPII/RNAPII [9]: can disrupt; Bioactive positive hit, tumor cell growth inhibition and lineage preference [10]: inhibits tumor cell growth in a non-lineage specific manner

**Q.** For `CC1(C)CCC(CN2CCN(c3ccc(C(=O)NS(=O)(=O)c4ccc(NCC5CCOCC5)c([N+](=O)[O-])c4)c(Oc4cnc5[nH]ccc5c4)c3)CC2)=C(c2ccc(Cl)cc2)C1` [venetoclax, Venetoclax], which “Sensitivity/resistance of CCRF-CEM cells” value (CCRF-CEM cells) is on record?
**A.** sensitive

**Q.** And the “Sensitivity/resistance of C1498 cells” value (C1498 cells)?
**A.** moderate to high resistance

**Q.** What about the “Sensitivity/resistance of NCI-H82 cells” value (H82 cells) of the same molecule?
**A.** resistant

**Q.** And the “Sensitivity/resistance of Kasumi-1 cells” value (Kasumi-1 (K1) cells)?
**A.** sensitive

**Q.** And the “Sensitivity of K1VR cells after NSUN1 or NSUN2 siRNA knockdown” value (K1VR cells)?
**A.** re-sensitize

**Q.** And the “AML patients developing venetoclax acquired resistance” value (MDS/AML; AML patients, venetoclax-based therapy, acquired resistance)?
**A.** > 60%

**Q.** What about the “MDS/AML with primary venetoclax resistance” value (MDS/AML; MDS/AML, primary resistance) of the same molecule?
**A.** 30-40%

**Q.** And the “Sensitivity/resistance of SC cells” value (SC cells)?
**A.** highly resistant

From US20260306459A1, “INHIBITORS OF NSUN1- AND NSUN2-MEDIATED ACTIVE STRUCTURES” (THE UNIVERSITY OF CHICAGO, priority 2023, published 2026)
